From the NIST ThermoML archive (doi:10.1021/je050273f)
Numbers after ± are expanded uncertainties.

Test: molar heat capacity at saturation pressure
Conditions: Liquid, Large sample (1 g) DSC

SMILES	molar heat capacity (332.2 K) [J/K/mol]	molar heat capacity (342.1 K) [J/K/mol]	molar heat capacity (354.9 K) [J/K/mol]	molar heat capacity (361.8 K) [J/K/mol]	molar heat capacity (371.6 K) [J/K/mol]	molar heat capacity (381.5 K) [J/K/mol]	molar heat capacity (391.4 K) [J/K/mol]	molar heat capacity (401.3 K) [J/K/mol]
Cc1cccc(C)c1 [1,3-dimethylbenzene]	193.6 ± 3.9	197.6 ± 4	201.7 ± 4	205.7 ± 4.1	209.4 ± 4.2	213.6 ± 4.3	217.4 ± 4.3	221.7 ± 4.4
CC(C)(C)c1ccccc1 [(1,1-dimethylethyl)benzene]	259 ± 5.2	263.1 ± 5.3	268.3 ± 5.4	272.7 ± 5.5	278.4 ± 5.6	283 ± 5.7	288.8 ± 5.8	293.5 ± 5.9
CCC(C)c1ccccc1 (stereo unspecified) [(1-methylpropyl)benzene]	258.5 ± 5.2	262.6 ± 5.3	267.9 ± 5.4	272.5 ± 5.5	277.5 ± 5.6	282.4 ± 5.6	287.3 ± 5.7	292.1 ± 5.8
CC(C)Cc1ccccc1 [(2-methylpropyl)benzene]	259.1 ± 5.2	263.5 ± 5.3	268.8 ± 5.4	273.9 ± 5.5	278.6 ± 5.6	283 ± 5.7	289.1 ± 5.8	293.8 ± 5.9
CCCCc1ccccc1 [butylbenzene]	259.1 ± 5.2	263 ± 5.3	267.8 ± 5.4	272.9 ± 5.5	277.6 ± 5.6	283.9 ± 5.7	288 ± 5.8	293.9 ± 5.9
CCc1ccccc1 [ethylbenzene]	198.7 ± 4	202.4 ± 4	205.9 ± 4.1	210.2 ± 4.2	213.6 ± 4.3	218 ± 4.4	221.7 ± 4.4	
CCCCCCCc1ccccc1 [heptylbenzene]	353.6 ± 7.1	359.6 ± 7.2	364.9 ± 7.3	371.5 ± 7.4	377.2 ± 7.5	384.3 ± 7.7	389.9 ± 7.8	396.5 ± 7.9
CCCCCCCCCCCCCCCCc1ccccc1 [hexadecylbenzene]	640 ± 13	651.3 ± 13	662 ± 13	671.9 ± 13	683.3 ± 14	695.3 ± 14	710 ± 14	721.1 ± 14
CCCCCCc1ccccc1 [hexylbenzene]	323.1 ± 6.5	328.8 ± 6.6	334.1 ± 6.7	340.1 ± 6.8	347.9 ± 7	353.8 ± 7.1	359.1 ± 7.2	366.1 ± 7.3
CC(C)c1ccccc1 [isopropylbenzene]	229.1 ± 4.6	234.2 ± 4.7	238.5 ± 4.8	242.5 ± 4.9	246.7 ± 4.9	251.1 ± 5	255.2 ± 5.1	259.5 ± 5.2
CCCc1ccccc1 [propylbenzene]	227.4 ± 4.5	231.4 ± 4.6	235.8 ± 4.7	240.1 ± 4.8	244.6 ± 4.9	249.3 ± 5	252 ± 5	
